Test results from patent publication US20250387359A1, “COMPOUNDS AND METHODS FOR THE TREATMENT OF PARASITIC INFECTIONS” (THE BOARD OF TRUSTEES OF THE UNIVERSITY OF ILLINOIS, priority 2019, published 2025).

Tested on: C. parvum
Assay: Real-time PCR quantification of C. parvum DNA in fecal samples of infected mice
Assay type: in vivo, Cryptosporidium parvum
Conditions: for fecal C. parvum DNA load: Table 6, infected mice, multiplier printed in next cell
Protocol: In vivo testing of the anti-Cryptosporidium effect of CpLDH inhibitors. Gamma interferon knockout mice (B6.129S7-Ifng), 8 weeks of age, were purchased from Charles River, USA. The care and use of the mice was done following the guidelines of protocol number 17024 approved by the University of Illinois at Urbana-Champaign, USA. The animals were allowed to acclimatize for 1 week before experiments commenced. Stock solutions of recombinant CpLDH inhibitors reconstituted in DMSO were diluted in sterile distilled water to reduce the final amount of DMSO in the solution to less than 1% (v/v) before administering them to mice. Prior to testing the anti-Cryptosporidium effect of the inhibitors in mice, the tolerability of each inhibitor was tested by oral gavage using varying dosages (100-2000 mg/kg body weight) of each inhibitor in groups of mice (three mice for each dose) daily for 7 days. Mice were observed daily for signs of toxicity including changes from normal physical activity, respiration, body temperature, feeding, posture, fur condition or occurrence of death. […] The subsequent dosages of NSC10447 used in the mice infection assays were 250, 500 and 1000 mg/kg mouse body weight, while the NSC158011 dosages used were 100, 200 and 400 mg/kg mouse body weight. Mice were allocated to groups as follows: “Infected plus inhibitor treatment”; “Infected minus inhibitor treatment”; “Uninfected minus inhibitor treatment” and “Infected plus paromomycin treatment”. Each group contained at least three mice. Each mouse in the infection groups received 5,000 C. parvum oocysts (resuspended in 50 μl of PBS) by oral gavage. Mice were housed individually in cages lined with sterile gauze as bedding. One day post-infection (PI), daily oral gavage administration of recombinant CpLDH inhibitor or paromomycin commenced and continued for a total of 7 days. Untreated mice received an equivalent volume of sterile distilled water (containing DMSO equivalent to the amount administered in the inhibitor-treated group) by oral gavage. Fecal pellets were collected daily from each cage and placed in individual sterile 15 ml conical tubes. An equivalent volume of PBS containing a cocktail of penicillin (100 units/ml), streptomycin (100 μg/ml), chloramphenicol (34 μg/ml) and amphotericin (0.25 μg/ml) was added to the fecal samples and stored at 4° C. until use for quantification of C. parvum genomic DNA load. Three independent replicate infection assays were performed. At 9 days PI, mice were euthanized and 5 cm of the distal small intestine resected 2 cm anterior to the cecum and immediately submerged in 4% buffered formalin. The intestinal tissues were submitted for histopathology to the Veterinary Diagnostic Laboratory at the University of Illinois at Urbana-Champaign. Briefly, intestinal tissues preserved in 4% buffered formalin were washed in 70% ethanol and embedded in 1% agar and then processed for paraffin embedding. For hematoxylin and eosin staining, five μm transverse and cross sections were cut and processed and stained following standard procedures of the Veterinary Diagnostic Laboratory. Sections were imaged using a Zeiss microscope and images captured with a color camera.
Quantification of C. parvum shed in mice feces. Genomic DNA was extracted from individual fecal samples collected from mice at different days as described above. For each sample, 220 mg of homogenized feces were used to extract genomic DNA using the QIAamp PowerFecal DNA Kit (Qiagen, USA) following the manufacturer's instructions. Quantification of the amount of C. parvum 18s rRNA gene (GenBank accession number AF164102) was performed essentially as described previously (Int. J. Parasitol. 2018; 48(8), 649-656). Briefly, primers were used to generate a 240 bp amplicon from C. parvum genomic DNA by conventional PCR. […]

O=C1c2ccccc2C(=O)c2c(O)c(O)cc(O)c21 [NSC10447]
lower C. parvum DNA load in feces compared to infected untreated (NSC10447 at 250, 500 and 1000 mg/kg, day 3 until day 8): at least 50%
fecal C. parvum DNA load (NSC10447 250 mg/kg, DPI 1): 4.4 ± 0.5 ×10^−10 ng/μL
fecal C. parvum DNA load (NSC10447 250 mg/kg, DPI 2): 7.3 ± 0.2 ×10^−10 ng/μL
fecal C. parvum DNA load (NSC10447 250 mg/kg, DPI 3): 1.0 ± 0.1 ×10^−8 ng/μL
fecal C. parvum DNA load (NSC10447 250 mg/kg, DPI 4): 1.2 ± 0.1 ×10^−7 ng/μL
fecal C. parvum DNA load (NSC10447 250 mg/kg, DPI 5): 1.2 ± 0.1 ×10^−6 ng/μL
fecal C. parvum DNA load (NSC10447 250 mg/kg, DPI 6): 4.8 ± 0.2 ×10^−6 ng/μL
fecal C. parvum DNA load (NSC10447 250 mg/kg, DPI 7): 1.9 ± 0.2 ×10^−5 ng/μL
fecal C. parvum DNA load (NSC10447 250 mg/kg, DPI 8): 4.7 ± 0.1 ×10^−5 ng/μL
fecal C. parvum DNA load (NSC10447 500 mg/kg, DPI 1): 1.0 ± 0.5 ×10^−10 ng/μL
fecal C. parvum DNA load (NSC10447 500 mg/kg, DPI 2): 9.4 ± 0.2 ×10^−10 ng/μL
fecal C. parvum DNA load (NSC10447 500 mg/kg, DPI 3): 6.7 ± 0.6 ×10^−9 ng/μL
fecal C. parvum DNA load (NSC10447 500 mg/kg, DPI 4): 1.4 ± 0.1 ×10^−7 ng/μL
fecal C. parvum DNA load (NSC10447 500 mg/kg, DPI 5): 1.6 ± 0.1 ×10^−6 ng/μL
fecal C. parvum DNA load (NSC10447 500 mg/kg, DPI 6): 5.9 ± 0.4 ×10^−6 ng/μL
fecal C. parvum DNA load (NSC10447 500 mg/kg, DPI 7): 9.3 ± 0.2 ×10^−6 ng/μL
fecal C. parvum DNA load (NSC10447 500 mg/kg, DPI 8): 3.0 ± 0.4 ×10^−5 ng/μL
fecal C. parvum DNA load (NSC10447 1000 mg/kg, DPI 1): 1.2 ± 0.2 ×10^−9 ng/μL
fecal C. parvum DNA load (NSC10447 1000 mg/kg, DPI 2): 3.0 ± 0.7 ×10^−9 ng/μL
fecal C. parvum DNA load (NSC10447 1000 mg/kg, DPI 3): 6.4 ± 0.2 ×10^−9 ng/μL
fecal C. parvum DNA load (NSC10447 1000 mg/kg, DPI 4): 1.1 ± 0.1 ×10^−7 ng/μL
fecal C. parvum DNA load (NSC10447 1000 mg/kg, DPI 5): 1.3 ± 0.1 ×10^−6 ng/μL
fecal C. parvum DNA load (NSC10447 1000 mg/kg, DPI 6): 5.6 ± 0.4 ×10^−6 ng/μL
fecal C. parvum DNA load (NSC10447 1000 mg/kg, DPI 7): 6.3 ± 0.4 ×10^−6 ng/μL
fecal C. parvum DNA load (NSC10447 1000 mg/kg, DPI 8): 1.2 ± 0.8 ×10^−6 ng/μL
